# According to ChEMBL document CHEMBL1153316, “Selectivity profiling of DegP substrates and inhibitors” (Bioorg Med Chem, 2009):
# Peptide text beside a SMILES is read from it.
# Legend:
# Escherichia coli [1] = assay: Inhibition of Escherichia coli degP assessed as specific activity at 0.5 mM; set-up: scale not given: the % may be the effect or the level left
# [2] = Inhibition of elastase assessed as specific activity at 0.5 mM; set-up: scale not given: the % may be the effect or the level left
# [3] = Inhibition of subtilisin assessed as specific activity at 0.5 mM; set-up: scale not given: the % may be the effect or the level left
# [4] = target: Plasminogen (Homo sapiens) (UniProt P00747); assay: Inhibition of plasmin assessed as specific activity at 0.5 mM; set-up: scale not given: the % may be the effect or the level left
# [5] = Inhibition of trypsin assessed as specific activity at 0.5 mM; set-up: scale not given: the % may be the effect or the level left
# [6] = Inhibition of chymotrypsin assessed as specific activity at 0.5 mM; set-up: scale not given: the % may be the effect or the level left
# [7] = target: Prothrombin (Homo sapiens) (UniProt P00734); assay: Inhibition of thrombin assessed as specific activity at 0.5 mM; set-up: scale not given: the % may be the effect or the level left
# [8] = Inhibition of kallikrein assessed as specific activity at 0.5 mM; set-up: scale not given: the % may be the effect or the level left
# Escherichia coli [9] = assay: Inhibition of Escherichia coli degP assessed as residual proteolytic activity at 0.5 mM
# [10] = Inhibition of elastase assessed as residual proteolytic activity at 0.5 mM
# [11] = Inhibition of subtilisin assessed as residual proteolytic activity at 0.5 mM
# [12] = target: Plasminogen (Homo sapiens) (UniProt P00747); assay: Inhibition of plasmin assessed as residual proteolytic activity at 0.5 mM
# [13] = Inhibition of trypsin assessed as residual proteolytic activity at 0.5 mM
# [14] = Inhibition of chymotrypsin assessed as residual proteolytic activity at 0.5 mM
# [15] = target: Prothrombin (Homo sapiens) (UniProt P00734); assay: Inhibition of thrombin assessed as residual proteolytic activity at 0.5 mM
# [16] = Inhibition of kallikrein assessed as residual proteolytic activity at 0.5 mM
# Chain of Plasminogen (Homo sapiens) (P00747 97-580 limits assumed): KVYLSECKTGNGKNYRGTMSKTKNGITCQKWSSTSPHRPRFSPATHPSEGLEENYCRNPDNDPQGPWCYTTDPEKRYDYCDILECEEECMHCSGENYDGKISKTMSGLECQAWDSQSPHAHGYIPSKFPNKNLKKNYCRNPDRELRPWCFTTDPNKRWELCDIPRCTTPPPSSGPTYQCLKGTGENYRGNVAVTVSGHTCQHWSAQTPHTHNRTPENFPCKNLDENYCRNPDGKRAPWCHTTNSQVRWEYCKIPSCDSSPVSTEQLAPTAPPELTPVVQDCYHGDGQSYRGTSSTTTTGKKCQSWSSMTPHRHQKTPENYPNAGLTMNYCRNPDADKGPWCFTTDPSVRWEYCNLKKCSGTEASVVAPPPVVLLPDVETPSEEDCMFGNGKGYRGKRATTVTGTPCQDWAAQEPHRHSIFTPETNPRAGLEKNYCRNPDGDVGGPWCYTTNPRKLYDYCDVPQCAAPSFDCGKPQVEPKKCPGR
# Chain of Plasminogen (Homo sapiens) (P00747 581-810 limits assumed): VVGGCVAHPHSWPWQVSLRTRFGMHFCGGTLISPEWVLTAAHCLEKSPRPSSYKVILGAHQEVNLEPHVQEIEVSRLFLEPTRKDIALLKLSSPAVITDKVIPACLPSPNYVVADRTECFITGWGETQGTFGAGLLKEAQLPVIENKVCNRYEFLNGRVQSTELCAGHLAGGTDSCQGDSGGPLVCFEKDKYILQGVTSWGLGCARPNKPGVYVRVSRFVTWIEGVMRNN
Compound,Activity (Escherichia coli [1]) [%],Activity [2] [%],Activity [3] [%],Activity [4] [%],Activity [5] [%],Activity [6] [%],Activity [7] [%],Activity [8] [%],Activity (Escherichia coli [9]) [%],Activity [10] [%],Activity [11] [%],Activity [12] [%],Activity [13] [%],Activity [14] [%],Activity [15] [%],Activity [16] [%]
CC(C)[C@H](NC(=O)CNC(=O)CNC(=O)[C@H](CC(=O)O)NC(=O)[C@@H](NC(=O)[C@@H](N)CO)[C@@H](C)O)C(=O)Nc1ccc([N+](=O)[O-])cc1 (HELM PEPTIDE1{S.T.D.G.G.V.[O=[N+]([O-])c1ccc(N[*:1])cc1]}$$$$V2.0),< 1,5,< 1,2,< 1,< 1,< 1,< 1,,,,,,,,
CC(C)[C@H](NC(=O)[C@H](CCCNC(=N)N)NC(=O)CNC(=O)[C@@H](N)CO)C(=O)N[C@H](C(=O)N1CCC[C@H]1C(=O)NCC(=O)N[C@@H](Cc1ccc(O)cc1)C(=O)NCC(=O)N[C@@H](Cc1cnc[nH]1)C(=O)N[C@@H](C)C(=O)Nc1ccc([N+](=O)[O-])cc1)C(C)C (HELM PEPTIDE1{S.G.R.V.V.P.G.Y.G.H.A.[O=[N+]([O-])c1ccc(N[*:1])cc1]}$$$$V2.0),< 1,56,2970,< 1,< 1,< 1,< 1,< 1,,,,,,,,
CSCC[C@H](NC(=O)[C@H](CCSC)NC(=O)[C@@H]1CCCN1C(=O)[C@H](CC(C)C)NC(=O)[C@@H](NC(=O)[C@H](CC(N)=O)NC(=O)[C@H](Cc1ccccc1)NC(=O)[C@@H](N)C(C)C)[C@@H](C)O)C(=O)NCC(=O)N[C@@H](CCCCN)C(=O)N[C@@H](C)C(=O)N[C@@H](CO)C(=O)N1CCC[C@H]1C(=O)N[C@H](C(=O)Nc1ccc([N+](=O)[O-])cc1)C(C)C (HELM PEPTIDE1{V.F.N.T.L.P.M.M.G.K.A.S.P.V.[O=[N+]([O-])c1ccc(N[*:1])cc1]}$$$$V2.0),32,89,< 1,< 1,< 1,8,< 1,< 1,,,,,,,,
CC(C)[C@H](NC(=O)[C@H](CCC(=O)O)NC(=O)[C@H](Cc1ccc(O)cc1)NC(=O)CNC(=O)[C@H](CO)NC(=O)[C@H](CC(=O)O)NC(=O)[C@H](Cc1cnc[nH]1)NC(=O)[C@H](CCCNC(=N)N)NC(=O)[C@H](Cc1ccccc1)NC(=O)[C@H](CCC(=O)O)NC(=O)[C@H](C)NC(=O)[C@H](CC(=O)O)NC(=O)[C@@H](N)CO)C(=O)Nc1ccc([N+](=O)[O-])cc1,< 1,8,2,< 1,< 1,< 1,< 1,< 1,,,,,,,,
N=C(N)NCCC[C@H](NC(=O)c1ccccc1)C(=O)Nc1ccc([N+](=O)[O-])cc1,< 1,< 1,< 1,< 1,758,< 1,3,24,,,,,,,,
CC(C)C[C@H](NC(=O)CN)C(=O)N[C@@H](C)C(=O)N[C@H](C(=O)NCC(=O)N[C@@H](CC(N)=O)C(=O)N[C@H](C(=O)N[C@@H](CO)C(=O)N[C@H](C(=O)N[C@@H](C)C(=O)N[C@@H](CCC(=O)O)C(=O)N[C@@H](CC(C)C)C(=O)N[C@@H](CCC(N)=O)C(=O)N[C@@H](CC(=O)O)C(=O)N[C@@H](C)C(=O)N[C@H](C(=O)N1CCC[C@H]1C(=O)N[C@@H](C)C(=O)Nc1ccc([N+](=O)[O-])cc1)[C@H](C)O)[C@@H](C)O)C(C)C)[C@@H](C)O,< 1,24,1520,< 1,< 1,26,< 1,< 1,,,,,,,,
CSCC[C@H](NC(=O)[C@@H]1CCCN1C(=O)[C@@H](N)CO)C(=O)N[C@@H](Cc1ccccc1)C(=O)N[C@@H](CCCCN)C(=O)NCC(=O)N[C@H](C(=O)Nc1ccc([N+](=O)[O-])cc1)C(C)C (HELM PEPTIDE1{S.P.M.F.K.G.V.[O=[N+]([O-])c1ccc(N[*:1])cc1]}$$$$V2.0),18,7,3,< 1,< 1,< 1,< 1,< 1,,,,,,,,
CSCC[C@H](NC(=O)[C@H](CCSC)NC(=O)[C@@H]1CCCN1)C(=O)NCC(=O)N[C@@H](CCCCN)C(=O)N[C@@H](C)C(=O)N[C@@H](CO)C(=O)N1CCC[C@H]1C(=O)N[C@H](C(=O)CCl)C(C)C (HELM PEPTIDE1{P.M.M.G.K.A.S.P.V.[ClC[*:1]]}$$$$V2.0),,,,,,,,,49,< 1,5,71,348,53,122,108
CSCC[C@H](NC(=O)[C@H](CCSC)NC(=O)[C@@H]1CCCN1C(=O)[C@H](CC(C)C)NC(=O)[C@@H](NC(=O)[C@H](CC(N)=O)NC(=O)[C@H](Cc1ccccc1)NC(=O)[C@@H](NC(=O)[C@@H]1CCCN1)C(C)C)[C@@H](C)O)C(=O)NCC(=O)N[C@@H](CCCCN)C(=O)N[C@@H](C)C(=O)N[C@@H](CO)C(=O)N1CCC[C@H]1C(=O)N[C@H](C(=O)CCl)C(C)C (HELM PEPTIDE1{P.V.F.N.T.L.P.M.M.G.K.A.S.P.V.[ClC[*:1]]}$$$$V2.0),,,,,,,,,63,< 1,143,62,591,48,101,122
CSCC[C@H](NC(=O)[C@H](CCSC)NC(=O)[C@@H]1CCCN1C(=O)[C@H](CC(C)C)NC(=O)[C@@H](NC(=O)[C@H](CC(N)=O)NC(=O)[C@H](Cc1ccccc1)NC(=O)[C@@H](NC(=O)[C@@H]1CCCN1)C(C)C)[C@H](C)O)C(=O)NCC(=O)N[C@@H](CCCCN)C(=O)N[C@@H](C)C(=O)N[C@@H](CO)C(=O)N1CCC[C@H]1C(=O)N[C@H](C(=O)Nc1ccc([N+](=O)[O-])cc1)C(C)C,18,69,< 1,< 1,1,3,< 1,< 1,,,,,,,,
CC(C)[C@H](NC(=O)[C@@H]1CCCN1C(=O)[C@@H](NC(=O)[C@H](C)NC(=O)CNC(=O)[C@H](CO)NC(=O)CNC(=O)[C@H](CO)NC(=O)[C@H](CC(N)=O)NC(=O)[C@H](CCCCN)NC(=O)CNC(=O)[C@@H](N)CCCCN)[C@@H](C)O)C(=O)Nc1ccc([N+](=O)[O-])cc1 (HELM PEPTIDE1{K.G.K.N.S.G.S.G.A.T.P.V.[O=[N+]([O-])c1ccc(N[*:1])cc1]}$$$$V2.0),< 1,74,34,< 1,< 1,5,< 1,< 1,,,,,,,,
CC[C@H](C)[C@H](N)C(=O)N[C@@H](Cc1c[nH]c2ccccc12)C(=O)N[C@@H](CC(N)=O)C(=O)N[C@H](C(=O)N[C@@H](CC(C)C)C(=O)N[C@@H](CC(N)=O)C(=O)N[C@@H](CO)C(=O)NCC(=O)N[C@@H](CCCNC(=N)N)C(=O)N[C@H](C(=O)N[C@H](C(=O)N1CCC[C@H]1C(=O)NCC(=O)N[C@H](C(=O)NCC(=O)N[C@@H](Cc1cnc[nH]1)C(=O)N[C@@H](C)C(=O)CCl)[C@@H](C)O)C(C)C)C(C)C)[C@@H](C)O (HELM PEPTIDE1{I.W.N.T.L.N.S.G.R.V.V.P.G.T.G.H.A.[ClC[*:1]]}$$$$V2.0),,,,,,,,,101,60,15,74,410,78,98,111
CSCC[C@H](NC(=O)[C@H](CCSC)NC(=O)[C@@H]1CCCN1)C(=O)NCC(=O)N[C@@H](CCCCN)C(=O)N[C@@H](C)C(=O)N[C@@H](CO)C(=O)N1CCC[C@H]1C(=O)N[C@H](C(=O)Nc1ccc([N+](=O)[O-])cc1)C(C)C (HELM PEPTIDE1{P.M.M.G.K.A.S.P.V.[O=[N+]([O-])c1ccc(N[*:1])cc1]}$$$$V2.0),1,96,< 1,4,< 1,< 1,< 1,< 1,,,,,,,,
CC(C)[C@H](NC(=O)[C@H](CCCNC(=N)N)NC(=O)CNC(=O)[C@@H](N)CO)C(=O)N[C@H](C(=O)N1CCC[C@H]1C(=O)NCC(=O)N[C@@H](Cc1ccc(O)cc1)C(=O)NCC(=O)N[C@@H](Cc1cnc[nH]1)C(=O)N[C@@H](C)C(=O)CCl)C(C)C (HELM PEPTIDE1{S.G.R.V.V.P.G.Y.G.H.A.[ClC[*:1]]}$$$$V2.0),,,,,,,,,102,83,15,62,285,69,131,135
CC(C)C[C@H](NC(=O)CNC(=O)[C@H](C)NC(=O)CNC(=O)[C@@H]1CCCN1C(=O)[C@@H](NC(=O)[C@H](CO)NC(=O)[C@H](C)NC(=O)CNC(=O)[C@@H](N)CCCCN)C(C)C)C(=O)N[C@H](C(=O)Nc1ccc([N+](=O)[O-])cc1)C(C)C (HELM PEPTIDE1{K.G.A.S.V.P.G.A.G.L.V.[O=[N+]([O-])c1ccc(N[*:1])cc1]}$$$$V2.0),< 1,6,< 1,< 1,< 1,< 1,< 1,< 1,,,,,,,,
